{
  "source": "paper PMC4992173",
  "about": "“Divergent synthesis and identification of the cellular targets of deoxyelephantopins” (Nature Communications, 2016)",
  "target": "T1, Zinc finger protein 346 (ZNF346) (Homo sapiens, UniProt Q9UL40)",
  "T1 construct": "1,522 proteins were enriched from MCF7 cells by 10 μM probe 24c; endogenous in cells; host or cells: MCF7",
  "T1 sequence (Q9UL40 whole entry)": "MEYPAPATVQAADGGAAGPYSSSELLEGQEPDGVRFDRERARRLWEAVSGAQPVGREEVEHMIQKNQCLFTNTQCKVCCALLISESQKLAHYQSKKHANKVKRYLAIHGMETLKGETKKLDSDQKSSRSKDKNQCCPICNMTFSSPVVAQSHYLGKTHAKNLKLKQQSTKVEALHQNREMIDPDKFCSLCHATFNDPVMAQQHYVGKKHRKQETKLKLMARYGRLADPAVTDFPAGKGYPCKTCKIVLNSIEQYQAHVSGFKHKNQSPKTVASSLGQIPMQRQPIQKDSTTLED",
  "experiment": "In situ competitive profiling in live MCF7 cells (LFQ): ZNF346",
  "assay_type": "cell-based",
  "conditions": "4 h, then 10 µM 24c, n=4",
  "description": "In our efforts to determine the direct molecular targets of deoxyelephantopin we first performed a gel-based competitive in situ proteomic profiling assay[41] […] While the greater conformational flexibility of probe 24c could potentially lead to more promiscuous target engagement relatively to deoxyelephantopin, it was favoured based on the fact that an alkyne moiety appended to the rigid scaffold of deoxyelephantopin may hinder some of its interactions. MCF7 cells were pretreated with various concentrations of deoxyelephantopin for 4 h, harvested, lysed and the lysates were treated with the fluorogenic probe 24c-Cy3 (10 μM; Supplementary Fig. 10). […] Furthermore, cells were pretreated with 20 μM concentration of deoxyelephantopin or 24c and the proteomic profiles were compared (Fig. 6b, Supplementary Fig. 11). Multiple bands were detected that were equally competed by both DEP and 24c, thus again confirming that 24c can be used as an acceptable clickable analogue of deoxyelephantopin in pulldown assays. Having established the optimal labelling conditions by SDS–PAGE, we next carried out a mass spectrometry-based competitive profiling assay[42] coupled with the method of stable isotope labelling of amino acids in culture (SILAC)[43]. […]\nFigure 6 Proteome-wide identification of deoxyelephantopin targets. […] Quantification was performed using label-free quantification (LFQ) method (n=4). […]",
  "data": [
    {"smiles": "C=C(C)C(=O)O[C@H]1CC2=C[C@@H](C/C(C)=C/[C@H]3OC(=O)C(=C)[C@H]13)OC2=O", "note": "[deoxyelephantopin]", "values": [
      {"measurement": "LFQ ratio 20 µM Deoxyelephantopin/DMSO with 24c", "value": 0.00}
    ]}
  ]
}
